Reference: US8017654B2, “Combination cancer therapy with bis(thiohydrazide) amide compounds” (priority 2005, dated 2011)

How the values were obtained:
[1] = Phase I trial, pharmacokinetics in plasma by LC/MS during cycle 1
Method: Pharmacokinetic (PK) studies were performed during cycle 1 using liquid chromatography/mass spectrometry (LC/MS) to measure both compounds in plasma. Heat shock protein 70 (Hsp70) was measured in plasma before and after treatment.

[2] = co-administered with Compound (1) 44-525 mg/m2

## CN(NC(=O)CC(=O)NN(C)C(=S)c1ccccc1)C(=S)c1ccccc1 [Compound (1)]
35 patients, 8 dose levels, with paclitaxel
  serious effects specifically attributable to Compound (1): No serious effects
[1]; Compound (1) 44-525 mg/m2, unaffected by paclitaxel dose
  PK linearity: linear PK

## CC(=O)O[C@H]1C(=O)[C@@]2(C)[C@H]([C@H](OC(=O)c3ccccc3)[C@]3(O)C[C@H](OC(=O)[C@H](O)[C@@H](NC(=O)c4ccccc4)c4ccccc4)C(C)=C1C3(C)C)[C@]1(OC(C)=O)CO[C@@H]1C[C@@H]2O [Paclitaxel, paclitaxel]
In vivo
  Paclitaxel dose limiting toxicities: occurred in a single patient in each of the top three dose levels
[1]; [2]
  Paclitaxel clearance, trend with Compound (1) dose: significant trend toward decreasing clearance
  Paclitaxel terminal phase half-life, effect of Compound (1) dose: without affecting the terminal phase half-life
